From patent US8987486B2, “Trans-2-decenoic acid derivative and pharmaceutical agent containing the same” (Nagoya Industrial Science Research Institute, priority 2010, dated 2015) come the findings set out here.

Assay [1] deals with paclitaxel-induced peripheral nerve disorder rats. Kind of assay: von Frey test in paclitaxel-induced peripheral nerve disorder rats. The class given is in vivo. As to conditions: Rattus norvegicus, ip; single intraperitoneal dose of 300 μ/kg; higher of the thresholds after 1 hour and 5 hours; normal threshold 15; read-out: Recovery rate of 50% reaction threshold value (%). The protocol:
The effect of the compound of the present invention was tested for a peripheral nerve disorder which is a side effect induced by the administration of paclitaxel (an anti-cancer agent) such as hyperesthesia including allodynia (severe pain induced by such tactile stimuli which usually cause no pain). The compound of the present invention was intraperitoneally administered to rats as a test drug to conduct a von Frey test.
Male SD rats of six weeks age (one group comprising six rats) were used as experimental animals and paclitaxel (2 mg/kg) was intraperitoneally administered every other day for four times in total to prepare paclitaxel-induced peripheral nerve disorder rats. During 18 and 25 days or during 20 to 27 days after initiation of paclitaxel administration, the test drug was intraperitoneally administered in a single dose of […] and the following von Frey test was conducted.
The rats of the above (1) were placed in a transparent acrylic cage with a wire-meshed floor and habituated for about three minutes and the 50% reaction threshold values to the mechanical stimulus of right hind limb were measured before administration of the test drug and after 1, 5 and 24 hours from initiation of the administration.
The measurement was conducted using von Frey filaments (manufactured by North Coast Medical Inc.) in accordance with the methods of Chaplan, et al. (Journal of Neuroscience Methods, vol. 53, no. 1, pages 55 to 63, 1994) and Dixon, et al. (Annual Review of Pharmacology and Toxicology, vol. 20, pages 441 to 462, 1980). […] The case where the rat escaped at the instance of removing the filament was also called positive. When the positive reaction was noted, stimulus was conducted similarly using a filament of one rank weaker while, when no reaction was noted, stimulus was conducted similarly using a filament of one rank stronger and the point when the reaction changed from negative to positive or from positive to negative was called the first two reactions. After that, stimulus was conducted for continuous four times by the same up-down method. A 50% reaction threshold value to the mechanical stimulus was measured using the reaction to the six stimuli in total and then (mean value)±(standard error) for each group was calculated. Incidentally, when stimulus reached by that of 15.0 g without positive reaction or, when positive reaction continued to 0.4 g, then 15.0 g or 0.25 g was adopted as each threshold value, respectively. With regard to the higher 50% reaction threshold value between the 50% threshold values after 1 hour and 5 hours from administration of a test drug, a recovery rate (%) of the 50% reaction threshold value was calculated by the following expression in which 15 was adopted as the normal threshold value. Recovery rate (%) of 50% reaction threshold value=[(50% reaction threshold value after 1 hour or 5 hours from administration of test drug)−(50% reaction threshold value before administration of test drug)]/[(Normal threshold value)−(50% reaction threshold value before administration of test drug)]

Another assay concerns PC12 cells. Kind of assay: Evaluation using PC12 cells; immunostaining method for MAPK phosphorylation. The class given is cell-based. As to conditions: 30 minutes. The procedure:
PC12 cells were stimulated using the compound of the present invention and the phosphorylation of MAPK was evaluated by means of immunostaining of the cells. The specific operation procedure is as follows.
A cover glass was placed on a 24-well plate followed by coating with poly-L-lysine. PC12 cells were seeded in a cell density of 50,000 cells/well. (The amount of the medium was 400 μL) On the first day after seeding the cells, the medium was exchanged to DMEM containing 1% fetal bovine serum (FBS) and 0.06% L-glutamine.
The compound which was previously diluted with DMSO was dissolved in 100 μl of medium. After 12 to 16 hours from the medium exchange, 100 μl out of 400 μl of the medium was removed from each well and, in place of that, 100 μl of a medium containing the compound was added.
After 30 minutes from the addition, fixation was conducted using 4% paraformaldehyde (PFA) for 10 minutes. The fixed cells were washed with a Tris-buffered saline (TBS) and a TBS containing 0.3% Triton X was added thereto followed by incubating at 37° C. for 30 minutes. This was washed with a TBS and blocked with a TBS containing 3% skim milk for 30 minutes (at room temperature).
This was washed with a TBS for one time and a primary antibody (anti-phospho-p42/44 MAPK antibody; cell signalings; #9102 being diluted with TBS to an extent of 1,000-fold) was added thereto followed by subjecting to the reaction at 4° C. for one night. The primary antibody was removed and washed with a TBS for three times. After that, the secondary antibody (Alexa 488 goat anti-rabbit antibody; Invitrogen: being diluted to an extent of 1,000-fold using a TBS containing 1% Block Ace) was added thereto and the reaction was conducted at room temperature for 3 hours. The secondary antibody was removed and, after washing with a TBS, fixation was conducted with 4% PFA for 1 hour.
This was washed with a TBS, Hoechst (diluted with a TBS to an extent of 2000-fold) was added thereto and nuclear staining was conducted. This was washed and mounted.
Taking the photographic pictures and counting the positive cells were conducted as follows. An all-in-one microscope (manufactured by Keyence) was used, exposing time for pMAPK (green) was made 1/2.8 s, the place was appropriately decided in a Hoechst-stained image and the pictures were taken. Four pictures per one glass sheet were taken.
Photoshop (Adobe) was used and the cells having above a certain luminance were judged to be positive. All cells were labeled using Hoechst 33342 manufactured by Invitrogen and the rate of pMAPK-positive cells in Hoechst-positive cells was calculated. (cf. Table 7)

On to `CCCCCCC/C=C/C(=O)NCCC(C)C` [Compound 20, (E)-N-isopentyl dec-2-enamide], for which the inhibition in vivo at 0.3 mg/kg in assay [1] was determined as 42.5%. Take `CCCCCCC/C=C/C(=O)NCCCN(C)C` [Compound 38, (E)-N-3-(dimethylamino)propyl dec-2-enamide]: the inhibition in vivo at 0.3 mg/kg in assay [1] amounted to 52.1%. On the same count and under the same terms, then `CCCCCCC/C=C/C(=O)SCCc1ccccc1` [Compound 54, (E)-S-phenethyl dec-2-enethioate], with 51.9%; and `CCCCCCC/C=C/C(=O)NC(C)(C)CC` [Compound 21, (E)-N-tert-pentyl dec-2-enamide], with 63.2%; and `CCCCCCC/C=C/C(=O)NCCc1ccccc1` [Compound 29, (E)-N-phenethyl dec-2-enamide], with 46.3%.

As for `CCCCCCC/C=C/C(=O)NCCCCCC` [Compound 22, (E)-N-hexyl dec-2-enamide], the inhibition in vivo at 0.3 mg/kg in assay [1] came out at 64.6%. Regarding `CCCCCCC/C=C/C(=O)NC1CCCCC1` [Compound 27, (E)-N-cyclohexyl dec-2-enamide], the inhibition in vivo at 0.3 mg/kg in assay [1] came out at 46.4%. On to `CCCCCCC/C=C/C(=O)SC1CCCC1` [Compound 53, (E)-S-cyclopentyl dec-2-enethioate], for which the inhibition in vivo at 0.3 mg/kg in assay [1] was 34.9%. As for `CCCCCCC/C=C/C(=O)OC(C)CN(C)C` (stereo not shown) [Compound 3, (E)-1-(dimethylamino)propan-2-yl dec-2-enoate], the “Rate of pMAPK-positive cells (%)” value in the assay on PC12 cells (62.5 μg/mL) came to 0%; with PC12 cells (125 μg/mL), 12%; in the assay on PC12 cells (250 μg/mL) it was 14%; with PC12 cells (500 μg/mL), 14%. Consider `CCCCCCC/C=C/C(=O)OCCSC(C)C` [Compound 8, (E)-2-(isopropylthio)ethyl dec-2-enoate], for which, in assay [1], the inhibition in vivo at 0.3 mg/kg came to 32.2%.

Regarding `CCCCCCC/C=C/C(=O)NCCN(C(C)C)C(C)C` [Compound 40, (E)-N-2-(diisopropylamino)ethyl dec-2-enamide], in assay [1], the inhibition in vivo at 0.3 mg/kg was determined as 71.5%. Still for that read-out and setting: to `CCCCCCC/C=C/C(=O)NCC(C)C` [Compound 18, (E)-N-isobutyl dec-2-enamide] belongs 54.6%; to `CCCCCCC/C=C/C(=O)NCCCCCCC` [Compound 23, (E)-N-heptyl dec-2-enamide], 28.6%. In the case of `CCCCCCC/C=C/C(=O)SCCCCC` [Compound 48, (E)-S-pentyl dec-2-enethioate], in assay [1], the inhibition in vivo at 0.3 mg/kg was determined as 50.7%.

As for `CCCCCCC/C=C/C(=O)SCCCCCC` [Compound 50, (E)-S-hexyl dec-2-enethioate], the inhibition in vivo at 0.3 mg/kg in assay [1] came out at 51.7%. Regarding `CCCCCCC/C=C/C(=O)NCCN(CCCC)CCCC` [Compound 41, (E)-N-2-(dibutylamino)ethyl dec-2-enamide], the inhibition in vivo at 0.3 mg/kg in assay [1] amounted to 28.3%. `CCCCCCC/C=C/C(=O)OCCOC` [Compound 9, (E)-2-methoxyethyl dec-2-enoate]: the inhibition in vivo at 0.3 mg/kg in assay [1] is 51.4%. With `CCCCCCC/C=C/C(=O)NCCCC` [Compound 17, (E)-N-butyl dec-2-enamide], the inhibition in vivo at 0.3 mg/kg in assay [1] amounted to 52.6%.

For `CCCCCCC/C=C/C(=O)NCC` [Compound 16, (E)-N-ethyl dec-2-enamide], the inhibition in vivo at 0.3 mg/kg in assay [1] stood at 59.7%. On to `CCCCCCC/C=C/C(=O)N(CCCCC)CCCCC` [Compound 33, (E)-N,N-dipentyl dec-2-enamide], for which the inhibition in vivo at 0.3 mg/kg in assay [1] turned out to be 45.3%. On to `CCCCCCC/C=C/C(=O)OCC(C)(C)CN(C)C` [Compound 5, (E)-3-(dimethylamino)-2,2-dimethylpropyl dec-2-enoate], for which the “Rate of pMAPK-positive cells (%)” value with PC12 cells (62.5 μg/mL) is 1%; in the assay with PC12 cells (125 μg/mL) it was 23%; in the assay on PC12 cells (250 μg/mL) it was 0%; with PC12 cells (500 μg/mL) it was 24%.

Turning to `CCCCCCC/C=C/C(=O)OCCOCCN(C)C` [Compound 12, (E)-2-(2-(dimethylamino)ethoxy)ethyl dec-2-enoate], the “Rate of pMAPK-positive cells (%)” value in the assay with PC12 cells (62.5 μg/mL) came out at 11%; in the assay with PC12 cells (125 μg/mL), 17%; in the assay on PC12 cells (250 μg/mL) it was 9%; in the assay with PC12 cells (500 μg/mL) it was 29%.
